# According to patent US20110183925A1, “ANTI-INFLAMMATORY PEPTIDE” (NISSHIN PHARMA INC., priority 2008, published 2011):
# Where no end group is shown, it is not given here. [ ]: non-standard residue; d: D form. pGlu = O=C1CC[C@@H](C(=O)O)N1
# Experiments:
# Recombinant Human TACE = target: T1, Recombinant Human TACE (Homo sapiens, UniProt P78536); experiment: Measurement of TACE-inhibiting activity (fluorogenic substrate, HPLC quantification); type: biochemical; settings: 1 mg/mL peptide sample, 10 μL in reaction; 37° C., 20 minutes; Control (No Peptide) = 100%; lower = more inhibition
# T1 construct: purchased R&D Systems
# T1 sequence (P78536 215-824): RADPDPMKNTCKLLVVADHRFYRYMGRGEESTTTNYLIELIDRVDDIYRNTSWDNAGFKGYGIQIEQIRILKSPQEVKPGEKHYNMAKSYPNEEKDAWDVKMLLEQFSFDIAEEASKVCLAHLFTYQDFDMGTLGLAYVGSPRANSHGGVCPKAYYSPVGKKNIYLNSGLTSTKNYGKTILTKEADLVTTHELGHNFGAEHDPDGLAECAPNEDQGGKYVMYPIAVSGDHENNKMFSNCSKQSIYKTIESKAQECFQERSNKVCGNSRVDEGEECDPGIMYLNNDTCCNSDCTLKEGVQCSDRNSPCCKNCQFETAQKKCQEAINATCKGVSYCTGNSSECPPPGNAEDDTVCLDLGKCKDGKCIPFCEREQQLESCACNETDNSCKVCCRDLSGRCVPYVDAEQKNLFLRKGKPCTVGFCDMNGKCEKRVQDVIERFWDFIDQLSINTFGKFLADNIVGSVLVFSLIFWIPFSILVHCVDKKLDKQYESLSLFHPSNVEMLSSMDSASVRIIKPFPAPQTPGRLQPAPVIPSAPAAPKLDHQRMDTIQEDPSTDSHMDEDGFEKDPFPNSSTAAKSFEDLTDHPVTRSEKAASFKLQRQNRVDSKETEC
# Protocol: One mg/mL each of samples of pyroglutamyl peptides (pyroGlu-Leu, pyroGlu-Val, pyroGlu-Met, pyroGlu-Phe, pyroGlu-Gln-Gln, and pyroGlu-Pro-Gln) synthesized in Production Examples above were prepared and evaluated for TACE-inhibiting activity as follows.
# Each sample (10 μL) was added to 10 μL of 1 μmol/L reactive substrate (TACE Substrate (Mac-PLAQAV-Dpa-RSSSR-NH2) from Biomol. International LP), 10 μL of 10 ng/10 μL enzyme solution (Recombinant Human TACE from R&D Systems), 50 μL of buffer (50 mmol/L Tris-HCl, pH 9.0, 5 μM ZnCl2, 0.01% Brij35), and 20 μL of distilled water, which was reacted at 37° C. for 20 minutes. Thereto was added 10% trifluoroacetic acid to a final concentration of 1% to stop the reaction. The substrate and the product were separated under the following conditions using reversed-phase high-performance liquid chromatography. The substrate and the product were fluorescently measured at an excitation wavelength of 320 nm and a measuring wavelength of 405 nm for quantification.
# (§1) (Chromatography Condition)
# (§2) Solution A: 10% acetonitrile (0.1% TFA)/Solution B: 80% acetonitrile (0.1% TFA)
# (§3) Gradient: Solution B from 50% to 100%
# (§4) Measuring Wavelength: 230 nm
# The results are shown in Table 1 below as the ratio of the fluorescence intensity of the product to the fluorescence intensity of the product and the substrate.
# Caspase-1 (ICE) = target: T2, Caspase-1 (ICE) (Homo sapiens, UniProt P29466); experiment: Measurement of ICE-inhibiting activity (Ac-Trp-Glu-His-Asp-AMC substrate, HPLC quantification); type: biochemical; settings: 1 mg/mL peptide sample, 5 μL in reaction; 37° C., 20 minutes; Control (No Peptide) = 100%; lower = more inhibition
# T2 construct: purchased Biomol; International LP
# T2 sequence (P29466 120-297 limits assumed): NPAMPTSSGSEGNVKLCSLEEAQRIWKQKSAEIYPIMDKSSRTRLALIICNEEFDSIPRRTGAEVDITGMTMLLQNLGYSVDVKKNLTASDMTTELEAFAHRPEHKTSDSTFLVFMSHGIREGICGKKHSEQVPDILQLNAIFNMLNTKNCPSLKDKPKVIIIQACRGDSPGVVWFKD
# T2 sequence (P29466 317-404 limits assumed): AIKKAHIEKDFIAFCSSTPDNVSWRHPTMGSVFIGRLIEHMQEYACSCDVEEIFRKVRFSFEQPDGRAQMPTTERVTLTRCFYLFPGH
# Protocol: One mg/mL each of samples of pyroglutamyl peptides (pyroGlu-Leu, pyroGlu-Val, pyroGlu-Met, pyroGlu-Phe, pyroGlu-Gln-Gln, and pyroGlu-Pro-Gln) synthesized in Production Examples above were prepared and evaluated for ICE-inhibiting activity as follows.
# Each sample (5 μL) was added to 10 μL of 2,000 μmol/L reactive substrate (Caspase-1 substrate (Ac-Trp-Glu-His-Asp-AMC) from Alexis Biochemicals), 5 μL of 10 U/μl enzyme solution (Caspase-1 from Biomol. International LP), 60 μL of buffer (50 mmol/L HEPES, pH 7.4, 100 mM NaCl, 0.1% CHAPS, 1 mM EDTA, 10% glycerol, and 10 mM DTT), and 20 μL of distilled water, which was reacted at 37° C. for 20 minutes. Thereto was added 10% trifluoroacetic acid to a final concentration of 1% to stop the reaction. The substrate and the product were separated under the following conditions using reversed-phase high-performance liquid chromatography. The substrate and the product were fluorescently measured at an excitation wavelength of 380 nm and a measuring wavelength of 460 nm for quantification.
# as §1, §2, §3, §4
# The results are shown in Table 2 below as the ratio of the fluorescence intensity of the product to the fluorescence intensity of the product and the substrate.
Substance,ratio of the fluorescence intensity of the product to the fluorescence intensity of the product and the substrate (TACE reaction) (Recombinant Human TACE),ratio of the fluorescence intensity of the product to the fluorescence intensity of the product and the substrate (ICE/caspase-1 reaction) (Caspase-1 (ICE))
[pGlu]-Met,83%,75%
[pGlu]-Pro-Gln,66%,62%
[pGlu]-Val,81%,74%

# The next lines start with the values.
ratio of the fluorescence intensity of the product to the fluorescence intensity of the product and the substrate (TACE reaction) (Recombinant Human TACE),ratio of the fluorescence intensity of the product to the fluorescence intensity of the product and the substrate (ICE/caspase-1 reaction) (Caspase-1 (ICE)),Substance
70%,63%,[pGlu]-Gln-Gln
61%,55%,[pGlu]-Leu
84%,72%,pyroGlu-Phe
